Test results published in US11352604B2, “Method of making cardiomyocytes from human pluripotent cells” (Wisconsin Alumni Research Foundation, priority 2016, dated 2022).

Tests used:
Type in all cases: cell-based, human
[1] = tested on: day 5 cardiac progenitors; assay: Gene ontology / KEGG pathway analysis of pI:C up- and downregulated RNA-seq genes; conditions: pI:C top upregulated GO terms
Description: Day-5 cells from d3-5 untreated, TGFβ-treated, and pI:C-treated progenitors from the 19-9-11 iPS cell line were separately prepared as above for cell dissociation of progenitors from three different wells of each condition (for 9 total sequencing samples) and isolated as described above for RNA for RT-qPCR. rRNA-reduced Illumina TruSeq™ Stranded total RNA libraries were prepared and 1×100 bp single end sequencing was performed. To map and annotate RNA-seg data, STAR and HTSeq were used, respectively (Anders et al., 2015; Dobin and Gingeras, 2015). Annotated transcript counts were further processed with DeSEq2 for differential gene expression analysis (Love et al., 2014). Gene neighborhood analysis was performed with NEST (Jiang et al., 2015).

NFκB signaling = assay: Western blot of NFκB and phosphorylated IκB in day 5 cardiac progenitors; conditions: pI:C days 3-5
Description: Frozen cell pellets from cardiac progenitors in the 19-9-11 iPS cell line were thawed and protein isolated in EBC lysis buffer (Boston BioProducts) supplemented with complete protease inhibitor tablets (Roche) rocking on ice for 1 hour to cause cell lysis. After the observation of lysis material and cell debris, protein/debris mixtures were centrifuged at >18,000×g for 15 minutes at 4° C. The protein-containing supernatant was quantified in a plate reader using the Biorad DC protein assay. 40 to 80 μg of protein was loaded in 6× βmercaptoethanol-containing Laemmli sample buffer (Biorad), boiled for 10 minutes at 95° C., then run on a 4-20% Criterion™ TGX™ gel (Biorad) for 30 minutes at 200 V. Proteins were then transferred at 10 V overnight at 4° C. to Immobilon-FL™ PVDF in a Criterion™ plate transfer cassette in Tris-Glycine transfer buffer (Biorad) with 20% methanol. Membranes were blocked for 1 hour at RT in Licor PBS blocking buffer, and then incubated with primary antibodies overnight 4° C. Antibodies were used at a dilution of 1:1000 (goat anti-Jag1, R&D systems) or 1:3000 (GAPDH, sigma) in Licor PBS blocking buffer. […] Licor secondary donkey anti-rabbit or anti-mouse antibodies were used at 1:15,000 for 1 hour at RT in Licor PBS blocking buffer, and after washing membranes were analyzed in a Licor Odyssey detection system. […]

cTnT isoforms = assay: Top-down mass spectrometry of cTnT isoforms (adult to fetal AUC ratio)
Description: Freshly isolated CMs from the H9-cTnT-GFP (FIG. 1) or 19-9-11 (FIG. 2) hPSC cell lines were washed with Ca^2+-free DPBS and centrifuged at 1,100 g for 5 minutes (min) and the wash solvent was removed. The cells were first homogenized in 50 μl HEPES solution (25 mM HEPES, pH 7.4, 2.5 mM EDTA, 100 mM NaF, 1 mM DTT, 10 mM L-methionine, 1 mM PMSF, 1 mM Na3VO4, protease inhibitor (Abcam) and phosphatase inhibitors). The homogenates were centrifuged at 17,000 g for 20 min and the HEPES extract containing predominately cytosolic proteins was collected. The remaining pellets were homogenized in 40 μl trifluoroacetic acid (TFA) solution (1% TFA, 5 mM tris(2-carboxyethyl)phosphine, 5 mM L-methionine) and centrifuged at 17,000 g for 20 min. The TFA extract containing predominantly the sarcomeric proteins was collected. Bradford protein assays were performed to determine the protein concentration. The sarcomeric protein-enriched extracts were diluted to 100 ng/μl for Liquid chromatography (LC)-MS analysis.
500 ng of each sarcomeric protein-enriched extract was injected to a home-packed reverse phase chromatography (RPC) column (PLRP-S, 10 μm particle size, 1000 A pore size, 500 μm inner diameter, 25 cm long), and the proteins were separated with a gradient of 5-95% mobile phase B (0.1% formic acid in 50:50 acetonitrile:ethanol) (mobile phase A: 0.1% formic acid in H2O) at a constant flowrate of 12 μl/min. The eluting proteins were analyzed by a high-resolution quadrupole-time of flight (q-TOF) mass spectrometer (Impact II, Bruker Daltonics) via electrospray ionization. The mass spectra were collected at a scan rate of 0.5 Hz for all samples being analyzed. Analyses of top-down mass spectra were performed using the vender-specific software DataAnalysis 3.2 (Bruker Daltonics).
Quantification of the sarcomeric protein isoforms was performed as previously described. […] The area under curve (AUC) of the EIC of a specific protein isoform represents the abundance of the selected protein isoform. […] Relative quantification of protein isoform expression was measured by the ratio of the AUCs.

hPSC-CMs = assay: Cardiomyocyte yield from dissociated and replated progenitors; conditions: primed vs untreated
Description: For dissociation of day 5 cells (for destructive analyses or live cell replating experiments), progenitors were dissociated with Versene (Thermo Fisher Scientific) for 10 minutes at 37° C., pipetted up and down 40 times, and then neutralized 1:1 v/v versene solution with “K20” medium (DMEM/F12 with 1×NEAA, 1× Glutamine, 0.1 mM (3-mercaptoethanol, and 20% Knockout Serum Replacer by volume, all Thermo Fisher Scientific). For destructive analyses, pellets were made by centrifugation at 1.1×1000 g for 5 minutes, aspiration of medium supernatant, snap-freezing in liquid nitrogen, and kept at −80° C. for until pellet lysis for DNA, protein, or RNA isolation.
For replating of progenitors and microtissue formation, after neutralization and cell counting, 0.8 million day-5 progenitors per well were spun down at 100×g as above and resuspended and plated in 1 mL K20 with 10 μM Y-27632 ROCK-inhibitor (Tocris) into Synthemax® II-SC coated 12 well plates (Corning). Media was then changed daily in 2 mL of “K2” (same formulation as K20 above, but with just 2% Knockout Serum Replacer), and changed daily. Differentiating hPSC-CMs from replated progenitors in this protocol beat by day 8 to 12.

[2] = KEGG_PATHWAY hsa03030:DNA replication
[3] = KEGG_PATHWAY hsa03430:Mismatch repair
[4] = KEGG_PATHWAY hsa03460:Fanconi anemia pathway
[5] = KEGG_PATHWAY hsa04110:Cell cycle
[6] = KEGG_PATHWAY hsa05034:Alcoholism
[7] = KEGG_PATHWAY hsa05203:Viral carcinogenesis
[8] = KEGG_PATHWAY hsa05322:Systemic lupus erythematosus

polyinosinic-polycytidylic acid [pI:C]
% (genes in term) [1, 2]: 2.3989%
Count (upregulated genes in term) [1, 2]: 18
% (genes in term) [1, 3]: 1.0662%
Count (upregulated genes in term) [1, 3]: 8
% (genes in term) [1, 4]: 1.3327%
Count (upregulated genes in term) [1, 4]: 10
% (genes in term) [1, 5]: 1.9991%
Count (upregulated genes in term) [1, 5]: 15
% (genes in term) [1, 6]: 4.6645%
Count (upregulated genes in term) [1, 6]: 35
% (genes in term) [1, 7]: 3.1985%
Count (upregulated genes in term) [1, 7]: 24
% (genes in term) ([1]; KEGG_PATHWAY hsa05218:Melanoma): 1.3327%
Count (upregulated genes in term) ([1]; KEGG_PATHWAY hsa05218:Melanoma): 10
% (genes in term) [1, 8]: 4.7978%
Count (upregulated genes in term) [1, 8]: 36
phosphorylated IκB (NFκB pathway activation) (NFκB signaling): showed expression of phosphorylated (inactivated) inhibitor IκB
ratio of adult to fetal cTnT isoforms (cTnT isoforms; day 30 cardiomyocytes): increased the ratio of adult to fetal isoforms
adult to fetal cTnT isoform ratio and relative difference treated vs untreated (cTnT isoforms; prolonged culture to day 122): increased dramatically
increase in yield of cardiomyocytes (hPSC-CMs; replated at high reseeding density): 4 fold
increase in yield of cardiomyocytes (hPSC-CMs; replated at lower density): 6 fold
